Experimental data published in the OligoGym collection.
Several values for one entry are separate records, joined by “and”; a condition that tells them apart may be missing. Equal entries are not always repeated. After the bases stand the sugars from the 5' end (letter, count) and the backbone: PS all phosphorothioate, else s phosphorothioate and o phosphodiester by linkage. Methylation of C is not given here. e = 2'-O-(2-methoxyethyl) (MOE); k = constrained ethyl (cEt); d = 2'-deoxy (DNA)

Molecular target: IRF5
Conditions: ASO

Sequence	target mRNA inhibition (KARPAS-229, 4 µM)	further results
CTTGATTCCAATTTTG (sugars k3 d10 k3, PS)	20%	–
CTTGGTCTTGACCTCC (sugars k2 d8 e4 k2, PS)	20%	–
CTTGGTCTTGACCTCC (sugars k3 d9 k3 e1, PS)	6%	–
CTTGGTCTTGACCTCC (sugars kkddddddddddkeke, PS)	39%	–
CTTGGTCTTGACCTCC (sugars kkdddddddddkdkdk, PS)	13%	–
CTTGGTCTTGACCTCC (sugars kkdddddddddkekek, PS)	3%	–
CTTGGTCTTGACCTCC (sugars kkddddddddkekekk, PS)	0%	–
CTTGGTCTTGACCTCC (sugars kkkddddddddkdkdk, PS)	19%	–
CTTGGTCTTGACCTCC (sugars kkkddddddddkekek, PS)	1%	–
GAGACGAGCAAAGGGT (sugars k3 d10 k3, PS)	40%	–
GAGCAAAGGGTGAGTA (sugars k3 d10 k3, PS)	0%	–
GAGTAATAGGAGTGAG (sugars k3 d10 k3, PS)	33%	–
GAGTCATGGGCTGAGG (sugars k2 d8 e4 k2, PS)	5%	–
GAGTCATGGGCTGAGG (sugars k2 d9 e3 k2, PS)	30%	–
GAGTCATGGGCTGAGG (sugars kddddddddddkekek, PS)	0%	–
GAGTCATGGGCTGAGG (sugars kkdddddddddkdkdk, PS)	31%	–
GAGTCTCAAACCAGGG (sugars kdddddddddkekeke, PS)	6%	–
GAGTGAGACGAGCAAA (sugars kddddddddddkekek, PS)	18%	–
GAGTGAGACGAGCAAA (sugars kdddddddddkekeke, PS)	6%	–
GATGGTGTTATCTCCG (sugars kkddddddddddkeke, PS)	0%	–
GCATTCCATATACACA (sugars kdddddddddkekeke, PS)	34%	–
GCATTCCATATACACA (sugars kkddddddddkekekk, PS)	0%	–
GCTGTCACATCTCCAC (sugars k3 d10 k3, PS)	33%	–
GCTTGGTCTTGACCTC (sugars k2 d8 e4 k2, PS)	19%	–
GCTTGGTCTTGACCTC (sugars kddddddddddkekek, PS)	18%	–
GCTTGGTCTTGACCTC (sugars kkddddddddddkeke, PS)	9%	–

Sequence	target mRNA inhibition (KARPAS-229, 4 µM)	further results
GCTTGGTCTTGACCTC (sugars kkkddddddddkdkdk, PS)	30%	–
GGAAGTGAGTCTCAAA (sugars kkdddddddddkekek, PS)	25%	–
GGAAGTGAGTCTCAAA (sugars kkkddddddddkekek, PS)	45%	–
GGAGTGAGACGAGCAA (sugars k3 d10 k3, PS)	37%	–
GGAGTGAGACGAGCAA (sugars kkdddddddddkekek, PS)	27%	–
GGAGTGAGACGAGCAA (sugars kkkddddddddkekek, PS)	5%	–
GGGAGTCAGACCTACC (sugars k3 d10 k3, PS)	0%	–
GGGCACAGCGCAGGTT (sugars kdddddddddkekeke, PS)	33%	–
GGTCTGGCCCTTTTGG (sugars kddddddddddkekek, PS)	0%	–
GGTCTGGCCCTTTTGG (sugars kdddddddddkekeke, PS)	0%	–
GGTCTGGCCCTTTTGG (sugars kkddddddddddkeke, PS)	0%	–
GGTCTTGACCTCCCGC (sugars kddddddddddkekek, PS)	37%	–
GGTCTTTGAGGTCTGG (sugars k2 d8 e4 k2, PS)	56%	–
GGTCTTTGAGGTCTGG (sugars k3 d9 k3 e1, PS)	33%	–
GGTCTTTGAGGTCTGG (sugars kkddddddddkekekk, PS)	52%	–
GGTGTATTTCCCTGTC (sugars k3 d9 k3 e1, PS)	0%	–
GGTGTATTTCCCTGTC (sugars kdddddddddkekeke, PS)	0%	–
GGTGTATTTCCCTGTC (sugars kkddddddddkekekk, PS)	0%	–
GGTTCTTGGACTCTCA (sugars k2 d8 e4 k2, PS)	54% and 64%	target mRNA inhibition (KARPAS-229, 0.44444 µM): 25%; target mRNA inhibition (KARPAS-229, 1.33333 µM): 51%; target mRNA inhibition (KARPAS-229, 12 µM): 77%
GGTTCTTGGACTCTCA (sugars k2 d9 e3 k2, PS)	48% and 73%	target mRNA inhibition (KARPAS-229, 0.44444 µM): 46%; target mRNA inhibition (KARPAS-229, 1.33333 µM): 64%; target mRNA inhibition (KARPAS-229, 12 µM): 84%
GGTTCTTGGACTCTCA (sugars kkdddddddddkekek, PS)	0%	–
GGTTCTTGGACTCTCA (sugars kkkddddddddkdkdk, PS)	28%	–
GTCTGGCCCTTTTGGA (sugars k2 d8 e4 k2, PS)	0%	–
GTCTGGCCCTTTTGGA (sugars kkdddddddddkekek, PS)	0%	–
GTCTTGACCTCCCGCT (sugars k2 d8 e4 k2, PS)	34%	–
GTCTTGACCTCCCGCT (sugars k2 d9 e3 k2, PS)	54% and 41%	target mRNA inhibition (KARPAS-229, 0.44444 µM): 22%; target mRNA inhibition (KARPAS-229, 1.33333 µM): 32%; target mRNA inhibition (KARPAS-229, 12 µM): 58%
